Consider three compounds from ChEMBL document CHEMBL1275407, “Treatment of scedosporiosis with voriconazole: clinical experience with 107 patients” (2008).

Structures are written as SMILES. Values after ≈ are worked out from the molar mass of the structure shown.

Holding throughout (format): functional
Experiment [1] deals with Scedosporium apiospermum. The experiment is described as follows: Antifungal activity against Scedosporium apiospermum isolated from voriconazole treated scedosporiosis patient by broth microdilution method.
The subject of experiment [2] is Lomentospora prolificans. The experiment is described as follows: Antifungal activity against Scedosporium prolificans isolated from voriconazole treated scedosporiosis patient by broth microdilution method. Background: Dilution methods test growth across graded concentrations, often in twofold steps.
Experiment [3] relates to Scedosporium apiospermum. Kind of experiment: Antifungal activity against Scedosporium apiospermum isolated from compound treated scedosporiosis patient by broth microdilution method.
The test system of experiment [4] is Lomentospora prolificans. The experiment is described as follows: Antifungal activity against Scedosporium prolificans isolated from compound treated scedosporiosis patient by broth microdilution method.

By MIC50 is commonly meant the lowest concentration that inhibits either 50% of growth or 50% of the strains tested, depending on the study. Low readings indicate greater potency, high ones weaker potency. In general, MIC90 refers to an inhibitory concentration at the 90% level, which refers to growth in some studies and to a panel of isolates in others. Lower therefore signals greater potency.

Regarding `C[C@@H]1[C@H](O)[C@@H](C)/C=C/C=C/C=C/C=C/C=C/C=C/C=C/[C@H](O[C@@H]2O[C@H](C)[C@@H](O)[C@H](N)[C@@H]2O)C[C@@H]2O[C@](O)(C[C@@H](O)C[C@@H](O)[C@H](O)CC[C@@H](O)C[C@@H](O)CC(=O)O[C@H]1C)C[C@H](O)[C@H]2C(=O)O` [AMPHOTERICIN B], the MIC50 turned out to be 4 µg/mL (≈ 4.33 µM) in experiment [1] and 8 µg/mL (≈ 8.66 µM) in experiment [2]. In addition, the figures for the MIC90 in experiment [1] and in experiment [2] were greater than 8 µg/mL and 16 µg/mL (≈ 17.3 µM), respectively.
In experiment [1], `CCC(C)n1ncn(-c2ccc(N3CCN(c4ccc(OCC5COC(Cn6cncn6)(c6ccc(Cl)cc6Cl)O5)cc4)CC3)cc2)c1=O` (configuration not stated) [ITRACONAZOLE] showed an MIC50 of 0.5 µg/mL (≈ 0.709 µM) and an MIC90 of 2 µg/mL (≈ 2.83 µM). For the same compound, in experiment [2], the MIC50 was determined as 16 µg/mL (≈ 22.7 µM) and the MIC90 stood at 16 µg/mL (≈ 22.7 µM).
As for `C[C@@H](c1ncncc1F)[C@](O)(Cn1cncn1)c1ccc(F)cc1F` [VORICONAZOLE], in experiment [3], the MIC50 turned out to be 0.25 µg/mL (≈ 0.716 µM) and the MIC90 was 1 µg/mL (≈ 2.86 µM). Further, in experiment [4], the MIC50 turned out to be 4 µg/mL (≈ 11.5 µM) and the MIC90 turned out to be 8 µg/mL (≈ 22.9 µM).
